Data reported in ChEMBL document CHEMBL1140917, “Structure-activity relationships of antitubercular nitroimidazoles. 1. Structural features associated with aerobic and anaerobic activities of 4- and 5-nitroimidazoles” (2009).

How the values were obtained:
Type in all cases: functional
[1] = test system: Mycobacterium tuberculosis; experiment: Antimycobacterial activity against Mycobacterium tuberculosis with deazaflavin-dependent nitroreductase mutant
[2] = test system: Mycobacterium tuberculosis; experiment: Antimycobacterial activity against Mycobacterium tuberculosis with cofactor F420 mutant
[3] = test system: Mycobacterium tuberculosis; experiment: Antimycobacterial activity against Mycobacterium tuberculosis with deazaflavin-dependent nitroreductase mutant under anaerobic condition

Compound | MIC [1] [µM] | MIC [2] [µM] | MAC [3] [µM]
FC(F)(F)Oc1ccc(CO[C@@H]2COc3nccn3C2)cc1 | >100 | >100 | >500
Cc1nc([N+](=O)[O-])cn1CCO | >100 | >100 | >500
O=[N+]([O-])c1cn2c(n1)C=C[C@@H](OCc1ccc(OC(F)(F)F)cc1)C2 | >100 | >100 | 62.5
Cc1ncc([N+](=O)[O-])n1CCO [METRONIDAZOLE] | >100 | >100 | 
COc1ncc([N+](=O)[O-])n1CCO | >100 | >100 | >500
O=[N+]([O-])c1cn2c(n1)CC[C@@H](OCc1ccc(OC(F)(F)F)cc1)C2 | >100 | >100 | 250
O=[N+]([O-])c1cnc2n1C[C@H](OCc1ccc(OC(F)(F)F)cc1)CO2 | >100 | >100 | 62.5
O=[N+]([O-])c1cnc2n1C[C@H](O)CO2 | >100 | >100 | 125
Cc1ncc([N+](=O)[O-])n1CCOCc1ccc(OC(F)(F)F)cc1 | >100 | >100 | 125
O=[N+]([O-])c1cnc2n1C[C@H](O)CC2 | >100 | >100 | >500
CO[C@@H]1COc2nc([N+](=O)[O-])cn2C1 | >100 | >100 | 250
O=[N+]([O-])c1cn2c(n1)OC[C@@H](OCc1ccc(OC(F)(F)F)cc1)C2 [PRETOMANID] | >100 | >100 | >500
Cc1nc([N+](=O)[O-])cn1CCOCc1ccc(OC(F)(F)F)cc1 | >100 | >100 | >500
O=[N+]([O-])c1cn2c(n1)OC[C@@H](O)C2 | >100 | >100 | 500
COc1nc([N+](=O)[O-])cn1CCOCc1ccc(OC(F)(F)F)cc1 | >100 | >100 | 250
O=[N+]([O-])c1cnc2n1C[C@@H](O)CC2 | >100 | >100 | >100
